We go through 84 compounds from ChEMBL document CHEMBL2417551, “Structure-guided design of novel thiazolidine inhibitors of O-acetyl serine sulfhydrylase from Mycobacterium tuberculosis” (J Med Chem, 2013).

This assay deals with O-acetylserine sulfhydrylase (Mycobacterium tuberculosis) (UniProt P9WP55). The following applies: at 500 nM.
Description: Inhibition of Mycobacterium tuberculosis N-terminal His-6-tagged recombinant CysK1 expressed in Escherichia coli BL21 (DE3) at 500 nM after 20 mins by spectrophotometric analysis
Take `CCN1C(=O)/C(=C/c2ccc(Cl)cc2Cl)S/C1=N\c1cccc(C(=O)O)c1`: the inhibition was determined as 45.4%.

For the compound `CCN1C(=O)/C(=C/c2ccccc2Br)S/C1=N\c1cccc(C(=O)O)c1`, the inhibition worked out at 54.1%.

As for `C=CCN1C(=O)/C(=C/c2ccccc2OCC(=O)OC)S/C1=N\c1cccc(C(=O)O)c1`, the inhibition is 38.6%.

Regarding `CCCN1C(=O)/C(=C/c2ccc(OCC(=O)OC)cc2)S/C1=N\c1cccc(C(=O)O)c1`, the inhibition stood at 0%.

`CCCN1C(=O)/C(=C/c2ccc(OCC(=O)O)cc2)S/C1=N\c1cccc(C(=O)O)c1`: the inhibition was found to be 0%.

Compound `CCN1C(=O)/C(=C/c2ccc(OC)cc2)S/C1=N\c1cccc(C(=O)O)c1` came in with an inhibition of 56.2%.

For `CC(C)N1C(=O)/C(=C/c2ccc(OCC(=O)O)cc2)S/C1=N\c1cccc(C(=O)O)c1`, the inhibition turned out to be 12.6%.

In turn, `CCN1C(=O)/C(=C/c2ccco2)S/C1=N\c1cccc(C(=O)O)c1` had an inhibition of 29.2%.

In turn, `CCN1C(=O)/C(=C/c2ccc(C)cc2)S/C1=N\c1cccc(C(=O)O)c1` returned an inhibition of 41.7%.

As for `CCN1C(=O)/C(=C/c2cccc(O)c2)S/C1=N\c1cccc(C(=O)O)c1`, the inhibition stood at 52.8%.

As for `CN1C(=O)/C(=C/c2cnccc2C(F)(F)F)S/C1=N\c1cccc(C(=O)O)c1`, the inhibition was 34.4%.

The compound `CCN1C(=O)/C(=C/c2ccccn2)S/C1=N\c1cccc(C(=O)O)c1` gave an inhibition of 38.7%.

`CCN1C(=O)/C(=C/c2ccccc2OCC(=O)OC)S/C1=N\c1cccc(C(=O)O)c1`: the inhibition worked out at 31%.

In turn, `CCN1C(=O)/C(=C/c2ccc([N+](=O)[O-])cc2)S/C1=N\c1cccc(C(=O)O)c1` gave an inhibition of 32.7%.

The compound `CCN1C(=O)/C(=C/c2c[nH]c3ccccc23)S/C1=N\c1cccc(C(=O)O)c1` had an inhibition of 61.9%.

Turning to `CC(C)N1C(=O)/C(=C/c2ccccc2OCC(=O)O)S/C1=N\c1cccc(C(=O)O)c1`, the inhibition is 18.5%.

Regarding `CCN1C(=O)/C(=C/c2ccccc2Cl)S/C1=N\c1cccc(C(=O)O)c1`, the inhibition was 43.3%.

`Cc1ccccc1/C=C1\S/C(=N\c2cccc(C(=O)O)c2)N(C)C1=O`: the inhibition amounted to 57.4%.

In the case of `CC(C)c1ccc(/C=C2\S/C(=N\c3cccc(C(=O)O)c3)N(C)C2=O)cc1`, the inhibition came to 54%.

`Cc1cccc(/C=C2\S/C(=N\c3cccc(C(=O)O)c3)N(C)C2=O)c1`: the inhibition was 49.6%.

For `CCN1C(=O)/C(=C/c2ccc(OCC(=O)O)cc2)S/C1=N\c1cccc(C(C)=O)c1`, the inhibition came to 10%.

`CN1C(=O)/C(=C/c2ccc[nH]2)S/C1=N\c1cccc(C(=O)O)c1` registered an inhibition of 58.4%.

In turn, `CN1C(=O)/C(=C/c2cccc(O)c2)S/C1=N\c1cccc(C(=O)O)c1` returned an inhibition of 56.8%.

`CCN1C(=O)/C(=C/c2cnccc2C(F)(F)F)S/C1=N\c1cccc(C(=O)O)c1` registered an inhibition of 46%.

On to `C=CCN1C(=O)/C(=C/c2ccccc2OCC(=O)O)S/C1=N\c1cccc(C(=O)O)c1`, for which the inhibition turned out to be 25.4%.

`CCCN1C(=O)/C(=C/c2ccc(OCC(=O)O)cc2)S/C1=N\c1cccc(C(C)=O)c1` gave an inhibition of 0%.

Compound `CN1C(=O)/C(=C/c2ccccc2Br)S/C1=N\c1cccc(C(=O)O)c1` yielded an inhibition of 50.5%.

Consider `CN1C(=O)/C(=C/c2ccc(Cl)cc2Cl)S/C1=N\c1cccc(C(=O)O)c1`, for which the inhibition amounted to 57.4%.

On to `CCN1C(=O)/C(=C/c2ccc(Cl)c(Cl)c2)S/C1=N\c1cccc(C(=O)O)c1`, for which the inhibition worked out at 37.8%.

Consider `CCCCN1C(=O)/C(=C/c2ccc(O)cc2)S/C1=N\c1cccc(C(=O)O)c1`, for which the inhibition was determined as 78.5%.

In turn, `CN1C(=O)/C(=C/c2ccccc2OCc2ccccc2)S/C1=N\c1cccc(C(=O)O)c1` came in with an inhibition of 44.8%.

`COC(=O)COc1ccccc1/C=C1\S/C(=N\c2cccc(C(=O)O)c2)N(C)C1=O` had an inhibition of 56.3%.

On to `CN1C(=O)/C(=C/c2ccccc2)S/C1=N\c1cccc(C(=O)O)c1`, for which the inhibition was 52.2%.

Turning to `CCN1C(=O)/C(=C/c2ccccc2OCC(=O)O)S/C1=N\c1cccc(C(=O)O)c1`, the inhibition turned out to be 15.9%.

`CCN1C(=O)/C(=C/c2ccc(Br)cc2)S/C1=N\c1cccc(C(=O)O)c1`: the inhibition is 60.9%.

For the compound `CCN1C(=O)/C(=C/c2ccc(O)cc2)S/C1=N\c1cccc(C(C)=O)c1`, the inhibition came out at 3.4%.

`CN1C(=O)/C(=C/c2ccco2)S/C1=N\c1cccc(C(=O)O)c1` returned an inhibition of 30.1%.

For `CCN1C(=O)/C(=C/c2ccc(OCC(=O)O)cc2)S/C1=N\c1cccc(C(=O)O)c1`, the inhibition was 36.9%.

With `CN1C(=O)/C(=C/c2ccccc2Cl)S/C1=N\c1cccc(C(=O)O)c1`, the inhibition is 54.6%.

In turn, `CCCCN1C(=O)/C(=C/c2ccc(O)cc2)S/C1=N\c1cccc(C(C)=O)c1` registered an inhibition of 25.1%.

Consider `CCCCN1C(=O)/C(=C/c2ccc(OCC(=O)O)cc2)S/C1=N\c1cccc(C(=O)O)c1`, for which the inhibition was determined as 0%.

On to `CCN1C(=O)/C(=C/c2ccc(O)c(OC)c2)S/C1=N\c1cccc(C(=O)O)c1`, for which the inhibition is 75.6%.

`COC(=O)COc1ccccc1/C=C1\S/C(=N\c2cccc(C(=O)O)c2)N(C(C)C)C1=O` gave an inhibition of 55.7%.

Compound `CCN1C(=O)/C(=C/c2ccc(OCC(=O)OC)cc2)S/C1=N\c1cccc(C(C)=O)c1` showed an inhibition of 8.2%.

For the compound `CCCCN1C(=O)/C(=C/c2ccc(OCC(=O)OC)cc2)S/C1=N\c1cccc(C(C)=O)c1`, the inhibition was found to be 0%.

Regarding `CCN1C(=O)/C(=C/c2ccccc2O)S/C1=N\c1cccc(C(=O)O)c1`, the inhibition is 53.2%.

In turn, `CCN1C(=O)/C(=C/c2cccc(C(F)(F)F)c2)S/C1=N\c1cccc(C(=O)O)c1` gave an inhibition of 26%.

As for `CCN1C(=O)/C(=C/c2cc(OC)c(OC)c(OC)c2)S/C1=N\c1cccc(C(=O)O)c1`, the inhibition amounted to 37.4%.

The compound `CCN1C(=O)/C(=C/c2ccc(Cl)cc2)S/C1=N\c1cccc(C(=O)O)c1` gave an inhibition of 54.4%.

On to `CCCN1C(=O)/C(=C/c2ccc(O)cc2)S/C1=N\c1cccc(C(C)=O)c1`, for which the inhibition was determined as 10.7%.

`Cc1ccc(/C=C2\S/C(=N\c3cccc(C(=O)O)c3)N(C)C2=O)cc1` came in with an inhibition of 45.6%.

For the compound `CN1C(=O)/C(=C/c2ccc(Br)cc2)S/C1=N\c1cccc(C(=O)O)c1`, the inhibition came out at 70.5%.

In turn, `CN1C(=O)/C(=C/c2ccccn2)S/C1=N\c1cccc(C(=O)O)c1` gave an inhibition of 64.4%.

As for `CCN1C(=O)/C(=C/c2cccc(C)c2)S/C1=N\c1cccc(C(=O)O)c1`, the inhibition came to 38.5%.

`CCN1C(=O)/C(=C/c2ccccc2)S/C1=N\c1cccc(C(=O)O)c1`: the inhibition was found to be 39.3%.

In turn, `CCCCN1C(=O)/C(=C/c2ccc(OCC(=O)O)cc2)S/C1=N\c1cccc(C(C)=O)c1` showed an inhibition of 24.1%.

`CC(=O)c1cccc(/N=C2\S/C(=C\c3ccc(O)cc3)C(=O)N2C(C)C)c1` gave an inhibition of 8.2%.

`CN1C(=O)/C(=C/c2cccc(C(F)(F)F)c2)S/C1=N\c1cccc(C(=O)O)c1` registered an inhibition of 26.1%.

With `C=CCN1C(=O)/C(=C/c2ccc(O)cc2)S/C1=N\c1cccc(C(C)=O)c1`, the inhibition was 28.9%.

For `CCN1C(=O)/C(=C/c2ccc(C(F)(F)F)cc2)S/C1=N\c1cccc(C(=O)O)c1`, the inhibition came out at 50.8%.

Compound `C=CCN1C(=O)/C(=C/c2ccc(OCC(=O)OC)cc2)S/C1=N\c1cccc(C(=O)O)c1` had an inhibition of 19.9%.

Consider `COC(=O)COc1ccc(/C=C2\S/C(=N\c3cccc(C(C)=O)c3)N(C(C)C)C2=O)cc1`, for which the inhibition was 7.4%.

The compound `COC(=O)COc1ccc(/C=C2\S/C(=N\c3cccc(C(=O)O)c3)N(C(C)C)C2=O)cc1` displayed an inhibition of 0%.

Consider `CCCCN1C(=O)/C(=C/c2ccc(OCC(=O)OC)cc2)S/C1=N\c1cccc(C(=O)O)c1`, for which the inhibition stood at 16.4%.

In turn, `CCN1C(=O)/C(=C/c2ccc(OCc3ccccc3)cc2)S/C1=N\c1cccc(C(=O)O)c1` yielded an inhibition of 81.1%.

With `C=CCN1C(=O)/C(=C/c2ccc(OCC(=O)O)cc2)S/C1=N\c1cccc(C(C)=O)c1`, the inhibition was found to be 0%.

Compound `CCN1C(=O)/C(=C/c2ccccc2OC)S/C1=N\c1cccc(C(=O)O)c1` had an inhibition of 59.5%.

In turn, `CCN1C(=O)/C(=C/c2ccccc2C)S/C1=N\c1cccc(C(=O)O)c1` showed an inhibition of 47%.

On to `CCN1C(=O)/C(=C/c2ccc(OCC(=O)OC)cc2)S/C1=N\c1cccc(C(=O)O)c1`, for which the inhibition turned out to be 9.9%.

On to `CCN1C(=O)/C(=C/c2ccc[nH]2)S/C1=N\c1cccc(C(=O)O)c1`, for which the inhibition came to 32.5%.

In turn, `CCN1C(=O)/C(=C/c2ccc(N(C)C)cc2)S/C1=N\c1cccc(C(=O)O)c1` came in with an inhibition of 52.4%.

As to `CCN1C(=O)/C(=C/c2ccc(C(C)C)cc2)S/C1=N\c1cccc(C(=O)O)c1`, the inhibition was determined as 49.6%.

As to `CC(=O)c1cccc(/N=C2\S/C(=C\c3ccc(OCC(=O)O)cc3)C(=O)N2C(C)C)c1`, the inhibition came to 10.2%.

On to `CN1C(=O)/C(=C/c2ccc([N+](=O)[O-])cc2)S/C1=N\c1cccc(C(=O)O)c1`, for which the inhibition stood at 51.8%.

Compound `CN1C(=O)/C(=C/c2ccc(Cl)c(Cl)c2)S/C1=N\c1cccc(C(=O)O)c1` gave an inhibition of 60%.

Regarding `C=CCN1C(=O)/C(=C/c2ccc(OCC(=O)O)cc2)S/C1=N\c1cccc(C(=O)O)c1`, the inhibition worked out at 1.4%.

On to `CN1C(=O)/C(=C/c2ccccc2O)S/C1=N\c1cccc(C(=O)O)c1`, for which the inhibition was 62.7%.

With `C=CCN1C(=O)/C(=C/c2ccc(OCC(=O)OC)cc2)S/C1=N\c1cccc(C(C)=O)c1`, the inhibition stood at 10.9%.

Compound `CCCN1C(=O)/C(=C/c2ccc(OCC(=O)OC)cc2)S/C1=N\c1cccc(C(C)=O)c1` registered an inhibition of 0%.

On to `CN1C(=O)/C(=C/c2ccc(Cl)cc2)S/C1=N\c1cccc(C(=O)O)c1`, for which the inhibition came out at 59.7%.

As to `CN1C(=O)/C(=C/c2ccc(C(F)(F)F)cc2)S/C1=N\c1cccc(C(=O)O)c1`, the inhibition is 72.1%.

Regarding `CCN1C(=O)/C(=C/c2ccccc2OCc2ccccc2)S/C1=N\c1cccc(C(=O)O)c1`, the inhibition was 59.3%.

The compound `CN1C(=O)/C(=C/c2c[nH]c3ccccc23)S/C1=N\c1cccc(C(=O)O)c1` showed an inhibition of 73.5%.

The compound `CCN1C(=O)/C(=C/c2ccc(F)cc2)S/C1=N\c1cccc(C(=O)O)c1` registered an inhibition of 68.3%.

Broadly, the inhibition is the relative decrease from the control value, in per cent.
